From ChEMBL document CHEMBL1157802, “5-Functionalized indazoles as glucocorticoid receptor agonists” (Bioorg Med Chem Lett, 2010)

Experiments:
[1] = target: Voltage-gated inwardly rectifying potassium channel KCNH2 (Homo sapiens, UniProt Q12809); assay: Inhibition of human ERG by patch clamp method
[2] = target: T1, Muscarinic acetylcholine receptor M2 (Homo sapiens) (UniProt P08172); assay: Inhibition of muscarinic M2 receptor at 1 uM
T1 sequence (whole entry): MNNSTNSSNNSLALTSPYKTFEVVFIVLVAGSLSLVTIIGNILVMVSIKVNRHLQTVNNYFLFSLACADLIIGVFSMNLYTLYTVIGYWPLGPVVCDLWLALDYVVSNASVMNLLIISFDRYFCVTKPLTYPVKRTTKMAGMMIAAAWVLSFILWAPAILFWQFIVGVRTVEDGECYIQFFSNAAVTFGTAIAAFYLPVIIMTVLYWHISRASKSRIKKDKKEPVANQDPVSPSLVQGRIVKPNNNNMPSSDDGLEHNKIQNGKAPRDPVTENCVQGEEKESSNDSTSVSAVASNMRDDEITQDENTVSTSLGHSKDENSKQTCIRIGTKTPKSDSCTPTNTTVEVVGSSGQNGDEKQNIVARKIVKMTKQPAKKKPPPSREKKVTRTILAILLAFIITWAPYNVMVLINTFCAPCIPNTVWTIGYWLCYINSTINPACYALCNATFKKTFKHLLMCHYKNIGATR

[3] = target: T2, Adenosine receptor A1 (Homo sapiens) (UniProt P30542); assay: Inhibition of adenosine A1 receptor at 1 uM
T2 sequence (whole entry): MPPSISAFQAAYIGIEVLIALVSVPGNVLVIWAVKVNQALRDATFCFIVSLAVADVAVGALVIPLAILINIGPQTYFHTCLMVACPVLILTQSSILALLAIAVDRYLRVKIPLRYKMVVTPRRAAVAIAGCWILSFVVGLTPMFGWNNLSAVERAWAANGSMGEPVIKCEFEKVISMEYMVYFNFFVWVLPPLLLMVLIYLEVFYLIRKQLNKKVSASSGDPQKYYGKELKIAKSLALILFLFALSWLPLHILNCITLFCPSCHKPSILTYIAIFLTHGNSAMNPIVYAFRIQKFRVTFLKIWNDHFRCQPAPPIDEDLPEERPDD

[4] = Inhibition of GABAA receptor agonist site at 1 uM; format: functional
[5] = target: D(1A) dopamine receptor (Homo sapiens) (UniProt P21728); assay: Inhibition of dopamine D1 receptor at 1 uM
Chain of D(1A) dopamine receptor (Homo sapiens) (P21728 whole entry): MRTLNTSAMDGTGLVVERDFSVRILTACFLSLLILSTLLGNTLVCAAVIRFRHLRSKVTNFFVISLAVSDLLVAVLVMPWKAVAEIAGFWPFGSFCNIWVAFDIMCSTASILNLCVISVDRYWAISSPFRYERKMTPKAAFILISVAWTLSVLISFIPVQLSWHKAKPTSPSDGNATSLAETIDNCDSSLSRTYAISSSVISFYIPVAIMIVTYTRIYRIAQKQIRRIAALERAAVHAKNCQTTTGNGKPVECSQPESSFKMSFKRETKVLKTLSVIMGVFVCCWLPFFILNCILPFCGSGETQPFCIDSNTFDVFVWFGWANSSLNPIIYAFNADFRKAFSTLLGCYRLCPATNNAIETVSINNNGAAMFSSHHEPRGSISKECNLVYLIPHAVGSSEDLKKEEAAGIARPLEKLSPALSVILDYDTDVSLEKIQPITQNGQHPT

[6] = target: T3, Alpha-1B adrenergic receptor (Homo sapiens) (UniProt P35368); assay: Inhibition of adrenergic Alpha-1B receptor at 1 uM
T3 sequence (whole entry): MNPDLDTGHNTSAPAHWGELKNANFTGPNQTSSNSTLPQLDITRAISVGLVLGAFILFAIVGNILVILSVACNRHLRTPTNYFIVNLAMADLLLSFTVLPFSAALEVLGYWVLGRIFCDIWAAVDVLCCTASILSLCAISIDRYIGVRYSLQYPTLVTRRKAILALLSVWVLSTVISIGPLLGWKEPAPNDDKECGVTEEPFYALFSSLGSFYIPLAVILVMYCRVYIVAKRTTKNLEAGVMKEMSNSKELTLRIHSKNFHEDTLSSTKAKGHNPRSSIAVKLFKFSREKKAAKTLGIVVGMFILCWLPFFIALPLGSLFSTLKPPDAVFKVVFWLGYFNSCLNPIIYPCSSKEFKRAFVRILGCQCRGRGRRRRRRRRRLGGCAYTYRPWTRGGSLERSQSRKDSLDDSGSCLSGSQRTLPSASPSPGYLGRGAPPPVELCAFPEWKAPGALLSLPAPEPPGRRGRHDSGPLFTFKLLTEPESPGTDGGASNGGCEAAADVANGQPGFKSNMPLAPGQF

[7] = target: Sodium-dependent noradrenaline transporter (Homo sapiens) (UniProt P23975); assay: Inhibition of norepinephrine transporter at 1 uM
Chain of Sodium-dependent noradrenaline transporter (Homo sapiens) (P23975 whole entry): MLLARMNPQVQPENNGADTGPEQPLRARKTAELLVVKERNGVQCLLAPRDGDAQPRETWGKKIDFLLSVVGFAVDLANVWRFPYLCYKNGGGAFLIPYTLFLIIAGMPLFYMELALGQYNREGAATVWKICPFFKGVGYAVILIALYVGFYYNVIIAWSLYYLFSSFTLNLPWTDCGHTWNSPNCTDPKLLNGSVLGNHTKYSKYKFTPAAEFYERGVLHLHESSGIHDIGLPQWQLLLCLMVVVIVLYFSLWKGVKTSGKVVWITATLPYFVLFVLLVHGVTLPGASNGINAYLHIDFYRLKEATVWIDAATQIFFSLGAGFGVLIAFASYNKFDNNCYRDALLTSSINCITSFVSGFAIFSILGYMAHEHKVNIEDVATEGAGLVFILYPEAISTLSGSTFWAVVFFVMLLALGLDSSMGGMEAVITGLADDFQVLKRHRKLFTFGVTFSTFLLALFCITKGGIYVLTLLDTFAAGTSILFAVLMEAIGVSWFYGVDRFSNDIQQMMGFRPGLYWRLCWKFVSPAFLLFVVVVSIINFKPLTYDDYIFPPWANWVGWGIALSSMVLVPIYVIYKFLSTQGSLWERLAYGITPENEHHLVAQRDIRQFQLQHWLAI

[8] = Inhibition of rolipram binding site at 1 uM
[9] = Selectivity for human glucocorticoid receptor over ERalpha
[10] = target: Adenosine receptor A2a (Homo sapiens) (UniProt P29274); assay: Inhibition of adenosine A2A receptor at 1 uM
Chain of Adenosine receptor A2a (Homo sapiens) (P29274 whole entry): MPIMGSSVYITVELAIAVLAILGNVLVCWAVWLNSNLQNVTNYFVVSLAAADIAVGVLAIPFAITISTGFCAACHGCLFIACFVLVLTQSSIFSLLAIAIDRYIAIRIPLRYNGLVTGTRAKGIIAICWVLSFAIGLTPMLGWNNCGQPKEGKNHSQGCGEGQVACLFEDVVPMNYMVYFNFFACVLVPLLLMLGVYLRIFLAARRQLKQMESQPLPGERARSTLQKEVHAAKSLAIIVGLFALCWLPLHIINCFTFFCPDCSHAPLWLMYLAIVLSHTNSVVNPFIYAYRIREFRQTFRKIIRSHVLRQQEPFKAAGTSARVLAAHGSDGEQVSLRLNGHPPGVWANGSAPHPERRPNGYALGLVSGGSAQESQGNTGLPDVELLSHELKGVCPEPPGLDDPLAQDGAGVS

Chain of Voltage-gated inwardly rectifying potassium channel KCNH2 (Q12809 whole entry): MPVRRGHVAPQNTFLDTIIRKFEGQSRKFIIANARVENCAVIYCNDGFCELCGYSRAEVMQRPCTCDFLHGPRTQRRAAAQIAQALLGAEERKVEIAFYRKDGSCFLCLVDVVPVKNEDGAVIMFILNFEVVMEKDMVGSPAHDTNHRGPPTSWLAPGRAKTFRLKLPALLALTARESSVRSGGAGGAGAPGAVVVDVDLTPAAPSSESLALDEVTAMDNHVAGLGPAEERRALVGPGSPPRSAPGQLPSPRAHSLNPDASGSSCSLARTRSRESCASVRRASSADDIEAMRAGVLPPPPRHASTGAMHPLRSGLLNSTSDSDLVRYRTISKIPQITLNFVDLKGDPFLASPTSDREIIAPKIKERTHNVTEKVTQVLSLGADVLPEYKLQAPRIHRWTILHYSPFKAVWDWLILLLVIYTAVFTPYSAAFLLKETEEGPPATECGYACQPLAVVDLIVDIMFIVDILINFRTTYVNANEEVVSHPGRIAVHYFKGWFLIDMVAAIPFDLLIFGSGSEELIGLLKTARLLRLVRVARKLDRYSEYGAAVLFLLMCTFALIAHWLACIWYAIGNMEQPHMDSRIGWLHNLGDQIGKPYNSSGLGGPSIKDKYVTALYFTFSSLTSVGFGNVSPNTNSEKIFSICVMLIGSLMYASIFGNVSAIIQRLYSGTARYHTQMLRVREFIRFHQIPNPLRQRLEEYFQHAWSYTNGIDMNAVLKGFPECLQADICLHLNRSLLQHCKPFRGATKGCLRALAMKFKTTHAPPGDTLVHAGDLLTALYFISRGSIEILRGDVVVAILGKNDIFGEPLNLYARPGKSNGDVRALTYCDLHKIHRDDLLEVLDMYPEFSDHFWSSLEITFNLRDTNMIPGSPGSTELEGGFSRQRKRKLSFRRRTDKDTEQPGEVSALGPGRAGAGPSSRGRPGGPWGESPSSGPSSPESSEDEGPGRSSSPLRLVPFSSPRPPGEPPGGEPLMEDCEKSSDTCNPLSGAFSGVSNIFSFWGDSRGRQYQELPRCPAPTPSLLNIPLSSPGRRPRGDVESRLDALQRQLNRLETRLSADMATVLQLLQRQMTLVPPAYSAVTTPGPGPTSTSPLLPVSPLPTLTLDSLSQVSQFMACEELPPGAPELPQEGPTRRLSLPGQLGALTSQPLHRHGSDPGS

SMILES	IC50 [1]	inhibition [2]	inhibition [3]	inhibition [4]	inhibition [5]	inhibition [6]	inhibition [7]	inhibition [8]	Ratio [9]	inhibition [10]
OC(c1ccnc(Cl)c1)(c1ccc2c(cnn2-c2ccc(F)cc2)c1)C(F)(F)F (single isomer, unassigned; (-))	> 10 µM	< 50%	< 50%	< 50%	< 50%	< 50%	< 50%	< 50%	> 1000	< 50%
Cc1cc(C(O)(c2ccc3c(cnn3-c3ccc(F)cc3)c2)C(F)(F)F)ccc1F (single isomer, unassigned; (-))	> 10 µM	< 50%	< 50%	< 50%	< 50%	< 50%	< 50%	< 50%	> 1000	< 50%
